# Structures can show the parent of a compound that is named as a salt. Where two headings read alike, the source gives them in different places.
# How the values were obtained:
# [1] = test system: COL; test: In-vitro plant fungicide test; assay type: cell-based; design: inhibition of growth: concentration or dose not given beside the values; conditions: Table IVb, read-out: % Control at (ppm) indicated COL
# [2] = test system: Pseudomonas aerugenosa (PSAE); test: Minimum inhibitory concentration (MIC), broth two-fold serial dilution test; conditions: Pseudomonas, read-out: MIC (G-) PSAE, M9G (minimal salts media with glucose); Table IIIc, iodopropargyl esters of peptides
# Source text: When the test is ready to be done, each vessel in the dilution series, except the first vessel, contains an equal volume of compound free broth. The first vessel contains twice the volume of broth with the starting concentration of test compound. One half of the broth from the first vessel is transferred to the second vessel. After being mixed, one half the resulting volume is removed from the second vessel and transferred to the third vessel. The entire cycle is repeated sufficiently to give a series of concentrations amounting to 500, 250, 125, 63, 31, 16, 8, and 4 ppm (or 100, 50, 25, 12.5, 6.2, 3.1, 1.6, and 0.8), respectively.
# Each vessel is then inoculated with a cell suspension of the appropriate test organism. Bacteria are grown in broth, fungi on agar slants for a time and at a temperature appropriate to the species being tested, and algae are a mixture of green algae and blue-green bacteria grown in a nutrient media. At the end of the growth period, in the case of bacteria, the broth is vortexed to disperse the cells.
# The vessels are then incubated at the appropriate temperature. After the incubation, the vessels are examined for growth/no growth.
# [3] = test system: Septoria nodorum (SEP); test: In-vitro plant fungicide test; assay type: cell-based; conditions: Parastagonospora nodorum
# [4] = test system: Cochliobolus sativus (HEL); test: In-vitro plant fungicide test; assay type: cell-based; conditions: Bipolaris sorokiniana
# [5] = test system: Pseudomonas fluorescens (PSFL); test: Minimum inhibitory concentration (MIC), broth two-fold serial dilution test; conditions: Pseudomonas fluorescens, read-out: MIC (G-) PSFL, M9G (minimal salts media with glucose); Table IIIc, iodopropargyl esters of peptides
# [6] = test system: Xanthomonas campestris (XAN); test: In-vitro plant fungicide test; assay type: cell-based; design: inhibition of growth: concentration or dose not given beside the values; conditions: Xanthomonas campestris
# [7] = test system: Staphylococcus aureus (SAUR); test: Minimum inhibitory concentration (MIC), broth two-fold serial dilution test; conditions: Staphylococcus aureus, read-out: MIC (G+) SAUR, M9G (minimal salts media with glucose); Table IIIc, iodopropargyl esters of peptides
# [8] = test system: THREE FUNGI; test: MIC test against three fungi in Mycophile Broth, pH 5.0, read after 8 days (Table VII); assay type: cell-based; conditions: 192 h
# [9] = test system: Phytophthora capsici (PHY); test: In-vitro plant fungicide test; assay type: cell-based; conditions: Phytophthora capsici
# [10] = test system: Aspergillus niger (ANIG); test: Minimum inhibitory concentration (MIC), broth two-fold serial dilution test; assay type: cell-based; conditions: Aspergillus niger, read-out: MIC (F) ANIG, M9G (minimal salts media with glucose); Table IIIc, iodopropargyl esters of peptides
# [11] = test system: MON; test: In-vitro plant fungicide test; assay type: cell-based; conditions: Table IVb, read-out: % Control at (ppm) indicated MON
# [12] = test system: Piricularia oryzae (PIR); test: microbe, parasite or virus in culture; assay type: cell-based
# [13] = test system: Pythium ultimum (PYU); test: In-vitro plant fungicide test; assay type: cell-based; conditions: Globisporangium ultimum
# [14] = test system: Escherichia coli (ECOL); test: Minimum inhibitory concentration (MIC), broth two-fold serial dilution test; conditions: Escherichia coli, read-out: MIC (G-) ECOL, M9G (minimal salts media with glucose); Table IIIc, iodopropargyl esters of peptides
# [15] = test system: UST; test: In-vitro plant fungicide test; assay type: cell-based; design: inhibition of growth: concentration or dose not given beside the values; conditions: Table IVb, read-out: % Control at (ppm) indicated UST
# [16] = Table IVb, read-out: % Control at (ppm) indicated XAN
smiles,measurement,setting,value
"C[C@H](N)C(=O)N[C@@H](COCc1ccccc1)C(=O)OCC#CI [Compound 19, L-alanyl-O-benzyl-L-serine iodopropargyl ester trifluoroacetate]",inhibition of growth at 1.5 ppm,[1]; 1.5 ppm,0%
same,inhibition of growth at 3 ppm,[1]; 3 ppm,0%
same,inhibition of growth at 6 ppm,[1]; 6 ppm,0%
same,inhibition of growth at 0.2 ppm,[1]; .2 ppm,0%
same,inhibition of growth at 0.4 ppm,[1]; .4 ppm,0%
same,inhibition of growth at 0.8 ppm,[1]; .8 ppm,0%
same,inhibition of growth,[1],0%
same,MIC,[2],50 µg/mL
same,inhibition of growth at 1.5 ppm,"[3]; 1.5 ppm, Table IVb, read-out: % Control at (ppm) indicated SEP",50%
same,inhibition of growth at 6 ppm,"[3]; 6 ppm, Table IVb, read-out: % Control at (ppm) indicated SEP",100%
same,inhibition of growth at 25 ppm,"[3]; Table IVa, read-out: % Control at 25 ppm SEP",100%
same,inhibition of growth at 25 ppm,"[3]; Table IVb, read-out: % Control at (ppm) indicated SEP",100%
same,inhibition of growth at 0.2 ppm,"[3]; .2 ppm, Table IVb, read-out: % Control at (ppm) indicated SEP",0%
same,inhibition of growth at 0.4 ppm,"[3]; .4 ppm, Table IVb, read-out: % Control at (ppm) indicated SEP",0%
same,inhibition of growth at 0.8 ppm,"[3]; .8 ppm, Table IVb, read-out: % Control at (ppm) indicated SEP",0%
same,inhibition of growth at 1.5 ppm,"[4]; 1.5 ppm, Table IVb, read-out: % Control at (ppm) indicated HEL",0%
same,inhibition of growth at 6 ppm,"[4]; 6 ppm, Table IVb, read-out: % Control at (ppm) indicated HEL",0%
same,inhibition of growth at 25 ppm,"[4]; Table IVa, *=Phytotoxic, read-out: % Control at 25 ppm HEL",100%
same,inhibition of growth at 25 ppm,"[4]; Table IVb, read-out: % Control at (ppm) indicated HEL",100%
same,inhibition of growth at 0.2 ppm,"[4]; .2 ppm, Table IVb, read-out: % Control at (ppm) indicated HEL",0%
same,inhibition of growth at 0.4 ppm,"[4]; .4 ppm, Table IVb, read-out: % Control at (ppm) indicated HEL",0%
same,inhibition of growth at 0.8 ppm,"[4]; .8 ppm, Table IVb, read-out: % Control at (ppm) indicated HEL",0%
same,MIC,[5],50 µg/mL
same,inhibition of growth at 1.5 ppm,"[6]; 1.5 ppm, Table IVb, read-out: % Control at (ppm) indicated XAN",0%
same,inhibition of growth at 3 ppm,"[6]; 3 ppm, Table IVb, read-out: % Control at (ppm) indicated XAN",0%
same,inhibition of growth at 6 ppm,"[6]; 6 ppm, Table IVb, read-out: % Control at (ppm) indicated XAN",0%
same,inhibition of growth at 25 ppm,"[6]; Table IVa, read-out: % Control at 25 ppm XAN",0%
same,inhibition of growth at 25 ppm,[6]; [16],0%
same,inhibition of growth at 0.2 ppm,"[6]; .2 ppm, Table IVb, read-out: % Control at (ppm) indicated XAN",0%
same,inhibition of growth at 0.4 ppm,"[6]; .4 ppm, Table IVb, read-out: % Control at (ppm) indicated XAN",0%
same,inhibition of growth at 0.8 ppm,"[6]; .8 ppm, Table IVb, read-out: % Control at (ppm) indicated XAN",0%
same,inhibition of growth,[6]; [16],0%
same,MIC,[7],100 µg/mL
same,MIC,"[8]; Aspergillus niger, pH 5, read-out: MIC ANIG, Aspergillus niger, serial dilutions from 50 ppm, read after 8 days of incubation",50 µg/mL
same,MIC,"[8]; Aureobasidium pullulans, pH 5, read-out: MIC APUL, Aureobasidium pullulans, serial dilutions from 50 ppm, read after 8 days of incubation",50 µg/mL
same,MIC,"[8]; Gloeophyllum trabeum, pH 5, read-out: MIC GTRA, Gloeophyllum trabeum, serial dilutions from 50 ppm, read after 8 days of incubation",50 µg/mL
same,inhibition of growth at 1.5 ppm,"[9]; 1.5 ppm, Table IVb, read-out: % Control at (ppm) indicated PHY",0%
same,inhibition of growth at 6 ppm,"[9]; 6 ppm, Table IVb, read-out: % Control at (ppm) indicated PHY",0%
same,inhibition of growth at 25 ppm,"[9]; Table IVa, read-out: % Control at 25 ppm PHY",100%
same,inhibition of growth at 25 ppm,"[9]; Table IVb, read-out: % Control at (ppm) indicated PHY",100%
same,inhibition of growth at 0.2 ppm,"[9]; .2 ppm, Table IVb, read-out: % Control at (ppm) indicated PHY",0%
same,inhibition of growth at 0.4 ppm,"[9]; .4 ppm, Table IVb, read-out: % Control at (ppm) indicated PHY",0%
same,inhibition of growth at 0.8 ppm,"[9]; .8 ppm, Table IVb, read-out: % Control at (ppm) indicated PHY",0%
same,MIC,[10],< 0.8 µg/mL
same,inhibition of growth at 1.5 ppm,[11]; 1.5 ppm,50%
same,inhibition of growth at 6 ppm,[11]; 6 ppm,100%
same,inhibition of growth at 25 ppm,[11]; 25 ppm,100%
same,inhibition of growth at 0.2 ppm,[11]; .2 ppm,0%
same,inhibition of growth at 0.4 ppm,[11]; .4 ppm,0%
same,inhibition of growth at 0.8 ppm,[11]; .8 ppm,0%
same,inhibition of growth at 1.5 ppm,"[12]; 1.5 ppm, read-out: % Control at (ppm) indicated PIR",0%
same,inhibition of growth at 6 ppm,"[12]; 6 ppm, read-out: % Control at (ppm) indicated PIR",0%
same,inhibition of growth at 25 ppm,"[12]; 25 ppm, read-out: % Control at (ppm) indicated PIR",100%
same,inhibition of growth at 0.2 ppm,"[12]; .2 ppm, read-out: % Control at (ppm) indicated PIR",0%
same,inhibition of growth at 0.4 ppm,"[12]; .4 ppm, read-out: % Control at (ppm) indicated PIR",0%
same,inhibition of growth at 0.8 ppm,"[12]; .8 ppm, read-out: % Control at (ppm) indicated PIR",0%
same,inhibition of growth at 25 ppm,[12]; read-out: % Control at 25 ppm PIR,100%
same,inhibition of growth at 1.5 ppm,"[13]; 1.5 ppm, Table IVb, read-out: % Control at (ppm) indicated PYU",0%
same,inhibition of growth at 6 ppm,"[13]; 6 ppm, Table IVb, read-out: % Control at (ppm) indicated PYU",0%
same,inhibition of growth at 25 ppm,"[13]; Table IVa, read-out: % Control at 25 ppm PYU",100%
same,inhibition of growth at 25 ppm,"[13]; Table IVb, read-out: % Control at (ppm) indicated PYU",100%
same,inhibition of growth at 0.2 ppm,"[13]; .2 ppm, Table IVb, read-out: % Control at (ppm) indicated PYU",0%
same,inhibition of growth at 0.4 ppm,"[13]; .4 ppm, Table IVb, read-out: % Control at (ppm) indicated PYU",0%
same,inhibition of growth at 0.8 ppm,"[13]; .8 ppm, Table IVb, read-out: % Control at (ppm) indicated PYU",0%
same,MIC,[14],100 µg/mL
same,inhibition of growth at 1.5 ppm,[15]; 1.5 ppm,0%
same,inhibition of growth at 3 ppm,[15]; 3 ppm,0%
same,inhibition of growth at 6 ppm,[15]; 6 ppm,100%
same,inhibition of growth at 25 ppm,[15]; 25 ppm,100%
same,inhibition of growth at 0.2 ppm,[15]; .2 ppm,0%
same,inhibition of growth at 0.4 ppm,[15]; .4 ppm,0%
same,inhibition of growth at 0.8 ppm,[15]; .8 ppm,0%
same,inhibition of growth,[15],100%

# Reference: patent publication EP0414533A1, “Use of iodopropargyl esters of alpha-amino acid derivatives as antimicrobial agents” (ROHM AND HAAS COMPANY, priority 1989, dated 1991)
